From publication PMC7078479, “Sulfamoyl Heteroarylcarboxylic Acids as Promising Metallo-β-Lactamase Inhibitors for Controlling Bacterial Carbapenem Resistance” (mBio, 2020)
Read-outs that look alike come from different tables or passages of the source.

Legend:
E. coli DH5α/pBC-TMB-2 = experiment: Susceptibility testing, TMB-2-producing E. coli; assay type: cell-based; conditions: Escherichia coli
Description: (§1) MICs were determined via the microdilution method according to the CLSI guidelines ([38]). In brief, 5 × 10^4 bacterial cells were inoculated in 100 μl of cation-adjusted Mueller-Hinton broth (Becton, Dickinson and Company, Franklin Lakes, NJ) containing the β-lactams and appropriately diluted inhibitors. The final concentration of DMSO was maintained at 2% in the assays. The tested plates were then incubated at 35°C for 16 to 20 h. The MIC value was determined as the lowest concentration of tested β-lactams where no bacterial growth was visibly observed. The optical density at 600 nm (OD600) value was measured using a plate reader for drawing the heat maps. The FIC index value was calculated using the following equation: FIC index=MIC of β-lactam with inhibitor/MIC of β-lactam alone+MIC of inhibitor with β-lactam/MIC of inhibitor alone

E. coli DH5α/pBC-NDM-1 = experiment: Susceptibility and checkerboard testing, NDM-1-producing E. coli; assay type: cell-based, Escherichia coli; conditions: for MIC: Escherichia coli
Description: as §1
Unless noted otherwise, the FIC index was defined as the lowest value among all obtained values. The synergistic effect was defined as the effect observed when the FIC index value was ≤0.5.

[1] = tested on: E. coli BL21(DE3)/pET-SIM-1; experiment: Susceptibility testing, SIM-1-producing E. coli; assay type: cell-based; conditions: Escherichia coli
Description: as §1

[2] = tested on: IMP-type MBL-producing Enterobacteriaceae; experiment: Susceptibility testing, 19 IMP-type MBL-producing Enterobacteriaceae isolates; assay type: cell-based; conditions: for Isolates whose MPM MIC decreased to susceptible criteria (MIC ≤1 μg/ml): IMP-producing isolates
Description: as §1

[3] = tested on: E. coli BL21(DE3)/pET-DIM-1; experiment: Susceptibility testing, DIM-1-producing E. coli; assay type: cell-based; conditions: Escherichia coli
Description: as §1

NDM-1 = target: T1, NDM-1 (Klebsiella pneumoniae, UniProt C7C422); experiment: Inhibition of IPM hydrolysis by purified NDM-1, Ki by Lineweaver-Burk plots; assay type: biochemical; conditions: IPM as substrate, competitive model, mean of three replicates; read-out: Inhibition constant Ki NDM-1
T1 construct: made in house
Description: (§2) MBL (10 nM) was mixed with the inhibitors and incubated for 5 min at 30°C. IPM was added to reach a concentration of 150 μM, and the velocity of IPM hydrolysis was monitored at 298 nm. The assay was performed at 30°C using 10 mM HEPES (pH 7.5) buffer containing 200 mM NaCl and 50 μg/ml bovine serum albumin (BSA) for IMP-1, NDM-1, VIM-2, and SMB-1. For SFH-1 and L1, another 10 mM HEPES (pH 7.5) buffer containing 200 mM NaCl, 20 μM ZnSO4, and 50 μg/ml BSA was used.
Initial velocities (vo) were measured after varying the concentrations of IPM and inhibitors, and inverse velocities (1/vo) were plotted against inverse IPM concentrations […]. Lineweaver-Burk plots were constructed to obtain the inhibition constant (Ki) with the competitive inhibition model using the SigmaPlot 13 suite (Hulinks).

SMB-1 = experiment: In vitro inhibition assay, IPM hydrolysis by SMB-1; assay type: biochemical; conditions: even in the presence of 100 μM SFC
Description: as §2

[4] = tested on: E. coli BL21(DE3)/pET-SPM-1; experiment: Susceptibility testing, SPM-1-producing E. coli; assay type: cell-based; conditions: Escherichia coli
Description: as §1

OXA-48 = target: T2, OXA-48 (Klebsiella pneumoniae, UniProt Q6XEC0); experiment: Serine β-lactamase inhibition, nitrocefin hydrolysis by OXA-48; assay type: biochemical; conditions: nitrocefin 100 μM
T2 construct: made in house; host or cells: E. coli BL21(DE3)pLysS
Description: (§3) The serine–β-lactamases (1 nM) TLA-3, CMY-2, and OXA-48 were mixed with SFC in 100 mM phosphate buffer (pH 7.0) and incubated for 5 min at 30°C. Nitrocefin was added to reach a concentration of 100 μM, and the velocity of nitrocefin hydrolysis was monitored at 482 nm. Avibactam (MedKoo Bioscience, Morrisville, NC) was used as an inhibitor for serine–β-lactamases. The inhibitory effect of SFC against ACE was evaluated using ACE Kit-WST (Dojindo Laboratories, Kumamoto, Japan). The residual ACE activity was calculated as described in the manufacturer’s protocol as follows: [1 − (Acontrol − Asample)/(Acontrol − Abackground)] × 100. EDTA solution (Nippon Gene, Tokyo, Japan) was used as an ACE inhibitor.

[5] = Acute toxicity study in mice; assay type: in vivo; conditions: male, CD1, mouse, in vivo, ip, intraperitoneal (i.p.) single injection, read-out: 50% lethal dose (LD50)
Description: (§4) All experiments were approved by the Nagoya University Animal Ethics Committee, and all experiments were performed in a manner that minimized animal suffering. Male CD1 mice (4 weeks old; 20 to 25 g body weight) were purchased from Charles River Laboratories Japan (Yokohama, Japan). E. coli NUBL-24 (blaIMP-1) and K. pneumoniae MS5674 (blaNDM-1 and blaVIM-1) strains were inoculated on LB agar plates and grown for 18 h at 37°C. Bacteria were then scraped from the plates, and their concentration was adjusted to 5 × 10^6 to 1 × 10^7 CFU in saline solution containing 5% mucin; this solution was then i.p. injected into the mice. At 1 and 3 h after infection, saline solution, MPM, inhibitors, and a combination of MPM and inhibitor were i.p. injected. Mice were monitored for 7 days to formulate survival curves, after which they were euthanized by CO2 asphyxiation.
(§5) For acute toxicity studies, mice were i.p. (400 μl/injection) or i.v. (150 μl/injection) administered a single injection of serially diluted SFC. Mortality was then monitored for 7 days.

mice = experiment: Acute toxicity study in mice; assay type: in vivo; conditions: intravenous (i.v.) single injection, 7 days
Description: as §4, §5

SFH-1 = experiment: In vitro inhibition assay, IPM hydrolysis by SFH-1; assay type: biochemical; conditions: even in the presence of 100 μM SFC
Description: as §2

[6] = tested on: Salmonella enterica serovar Typhimurium TA98 and TA100, E. coli WP2uvrA; experiment: Ames test (reverse mutation assay)
Description: Bacterial strains of Salmonella enterica serovar Typhimurium TA98 and TA100 as well as E. coli WP2uvrA were analyzed using the reverse mutation assay, which was performed by UBE Scientific Analysis Laboratory (Tokyo, Japan).

TLA-3 = experiment: Serine β-lactamase inhibition, nitrocefin hydrolysis by TLA-3; assay type: biochemical; conditions: nitrocefin 100 μM
Description: as §3

[7] = tested on: Pseudomonas aeruginosa clinical isolates; experiment: Susceptibility testing, 17 P. aeruginosa clinical isolates; assay type: cell-based
Description: as §1

[8] = read-out: MIC of MPM + inhibitor (8 μg/ml)
[9] = read-out: MIC of MPM + inhibitor (32 μg/ml)

T1 sequence (C7C422 29-270 limits assumed): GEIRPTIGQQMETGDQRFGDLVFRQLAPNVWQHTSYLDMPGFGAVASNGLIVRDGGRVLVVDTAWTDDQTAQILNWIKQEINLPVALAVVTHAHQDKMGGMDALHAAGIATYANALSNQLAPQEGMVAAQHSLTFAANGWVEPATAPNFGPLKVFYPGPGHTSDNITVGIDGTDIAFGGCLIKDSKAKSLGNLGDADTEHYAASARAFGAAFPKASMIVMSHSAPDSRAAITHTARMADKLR
T2 sequence (Q6XEC0 23-265, looked up, species assumed): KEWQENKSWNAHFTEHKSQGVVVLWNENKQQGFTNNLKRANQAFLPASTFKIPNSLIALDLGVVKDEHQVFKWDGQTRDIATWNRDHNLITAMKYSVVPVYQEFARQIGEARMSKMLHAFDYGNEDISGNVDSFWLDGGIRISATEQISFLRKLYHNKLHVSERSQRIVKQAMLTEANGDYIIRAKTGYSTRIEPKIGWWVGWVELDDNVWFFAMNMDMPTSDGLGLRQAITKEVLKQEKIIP

## Cc1oc(C)c(S(N)(=O)=O)c1C(=O)O [SFC, 2,5-dimethyl-4-sulfamoylfuran-3-carboxylic acid]
E. coli DH5α/pBC-TMB-2; [8]
  MIC: 0.5 µg/mL
E. coli DH5α/pBC-TMB-2; [9]
  MIC: 0.125 µg/mL
E. coli DH5α/pBC-NDM-1; E. coli DH5α/pBC-NDM-1
  MIC meropenem + 2 μg/mL compound: 16 µg/mL
E. coli DH5α/pBC-NDM-1; E. coli DH5α/pBC-NDM-1, 2 μg/ml compound
  Reduction in MPM MIC: 4 fold
E. coli DH5α/pBC-NDM-1; [8]
  MIC: 2 µg/mL
E. coli DH5α/pBC-NDM-1; [9]
  MIC: ≤ 0.25 µg/mL
E. coli DH5α/pBC-NDM-1; checkerboard with MPM, E. coli DH5α/pBC-NDM-1, lowest value
  FIC index: 0.09
[1]; [8]
  MIC: 2 µg/mL
[1]; [9]
  MIC: 1 µg/mL
[2]; 10 μg/ml SFC, IMP-producing Enterobacteriaceae
  Reduction of MPM MIC50: 128 fold
[2]; addition of 10 μg/ml SFC
  Isolates whose MPM MIC decreased to susceptible criteria (MIC ≤1 μg/ml): 16/19
[2]; addition of 50 μg/ml SFC
  Isolates whose MPM MIC decreased to susceptible criteria (MIC ≤1 μg/ml): 17/19
[3]; [8]
  MIC: 2 µg/mL
[3]; [9]
  MIC: 2 µg/mL
NDM-1
  Ki: 9.82 µM
SMB-1
  Inhibition of IPM hydrolyzing activity of SMB-1: did not inhibit
[4]; [8]
  MIC: 0.063 µg/mL
[4]; [9]
  MIC: 0.063 µg/mL
OXA-48
  Inhibitory effect against OXA-48 (class D): nonexistent or insufficient
[5]
  LD50 at 7 days: > 1000 mg/kg
mice
  50% lethal dose (LD50): 246 mg/kg of body weight
SFH-1
  Inhibition of IPM hydrolyzing activity of SFH-1: did not inhibit
[6]
  Ames test, mutagenicity: negative
TLA-3
  Inhibitory effect against TLA-3 (class A): nonexistent or insufficient
[7]; 10 μg/ml SFC
  Drop of MPM MIC50: 2 fold
[7]; 50 μg/ml SFC
  Drop of MPM MIC50: 8 fold
